Assay results published in patent US20070027079A1, “GHRP 2 strips” (priority 2005, published 2007).
Where a SMILES comes first, the peptide text is derived from it. [ ]: non-standard residue; d: D form. d2Nal = N[C@H](Cc1ccc2ccccc2c1)C(=O)O

Assay: Certificate of analysis GHRP-2: solubility
Assay type: physicochemical
Conditions: specification: soluble in water and 1% acetic acid at a concentration of ≧1 mg/ml to give a clear, colorless solution; batch 6P-20030403

Solubility: Complies
SMILES: C[C@H](NC(=O)[C@@H](Cc1ccc2ccccc2c1)NC(=O)[C@@H](C)N)C(=O)N[C@@H](Cc1c[nH]c2ccccc12)C(=O)N[C@H](Cc1ccccc1)C(=O)N[C@@H](CCCCN)C(N)=O [GHRP-2, D-Ala-D-Nal-Ala-Trp-D-Phe-Lys-NH2] (H-[dA][d2Nal]AW[dF]K-NH2)
